Source: patent publication US7598028B2, “Compositions and methods for detecting and treating prostate disorders” (The Regents of the University of Michigan, priority 2006, dated 2009)
Entries after “also recorded” stand apart in the source; their conditions may differ.

Experiments:
Assay type in all cases: cell-based, human
[1] = system: N15C6 prostate epithelial cells; assay: Proliferation assay (cell counts), N15C6
Method: (§1) Proliferation assays. Cellular proliferation was assessed after plating cells at 50 000 cell/well in triplicate in six-well plates and counting cells after 24 and 96 h of incubation in complete media, serum-free media or serum-free prostate stromal fibroblast conditioned media, as described previously (Macoska J A, et al., (2004) Cancer Genet. Cytogenet. 154, 36-43; incorporated herein by reference in its entirety). Averages and standard deviations of cell number were calculated for each time point under each media condition. To assess the effects of exogenous CXCL12 on cellular proliferation, recombinant human SDF1 alpha/CXCL12 (R & D Systems, 350-NS) was added at the desired concentration in 1 mL SF HIE (or 1 mL SF HIE alone for control) to each well. The cells were counted at 24 and 96 h growth and re-fed at 48 and 72 h growth. Cell counts were normalized to 50 000 cells at 24 h to account for any plating discrepancies.
(§2) Proliferation Assays. Cellular proliferation was assessed after plating cells at 50,000 cell/well in triplicate in six well plates and counting cells after 24 and 96 hours of incubation as described previously (see, e.g., Macoska J A, et al., 2004 Cancer Genet. Cytogenet. 154, 36-43; incorporated herein by reference in its entirety). To assess the effects of exogenous CXCL12 on cellular proliferation, recombinant human SDF1 alpha/CXCL12 (R&D Systems, 350-NS) was added at the desired concentration in 1 ml SF HIE (or 1 ml SF HIE alone for control) to each well. The cells were re-fed at 48 and 72 hours growth and counted at 24 and 96 hours growth. Cell counts were normalized to 50,000 cells at 24 hours to account for any plating discrepancies. Averages and standard deviations of cell number were calculated for each time point under each media condition. Experiments utilizing U0126 were performed as above, except that cells were treated after plating for 2 hours with either DMSO (vehicle) or 5 uM U0126 before addition of CXCL12. Cells were maintained in media containing DMSO or U0126 for the entirety of the experiment. For the antibody blockade experiments, cells were plated at 10,000 cells per well in triplicate in 24 well dishes and pre-incubated with mouse IgG2aκ (BD Pharmingen 555571) or mouse anti-CXCR4 (BD Pharmingen 555971) at 1 ug/ml for 1 hour prior to CXCL12 addition. Cells were maintained in media containing appropriate antibodies for the entirety of the experiment, and cells were counted at 24 and 96 hours as above.
(§3) Proliferation Assays. Cellular proliferation was assessed after plating cells at 50,000 cell/well in triplicate in six well plates and counting cells after 24 and 96 hours of incubation as described previously (see, e.g., Begley L, et al., Genes Chromosomes Cancer. 2006 February; 45(2): 136-46; herein incorporated by reference in its entirety). To assess the effects of exogenous CXCL5 on cellular proliferation, recombinant human CXCL5 (R&D Systems, 254-X) was added at the desired concentration in 2 ml SF media (or 2 ml SF media alone for control) to each well. The cells were re-fed at 24 hours growth and counted at 24 and 96 hours growth. Cell counts were normalized to 50,000 cells at 24 hours to account for any plating discrepancies. Averages and standard deviations of cell number were calculated for each time point under each media condition. For the antibody blockade experiments, 10,000 cells per well were plated in triplicate in 24 well dishes and preincubated with mouse anti-human CXCR2 (Biosource AHR1532X) or mouse antihuman CXCR4 (BD Pharmingen 555971) at 1 ug/ml for 1 hour prior to CXCL5 addition. Cells were maintained in media containing appropriate antibodies for the entirety of the experiment and were counted at 24 and 96 hours as above.

[2] = system: LNCaP prostate epithelial cells; assay: Proliferation assay (cell counts), LNCaP
Method: as §1, §2, §3

EGR1 gene transcript = assay: Quantitative real-time PCR, EGR1 in N15C6 cells
Method: Quantitative Real-Time PCR. All quantitative real-time assays were conducted with an Applied Biosystems 7900HT instrument and reagents. Cells were grown to 70% confluence in […] dishes prior to RNA purification using the Trizol reagent (Invitrogen Life Technologies). Experiments utilizing U0126 were performed as above, except that cells were treated with DMSO (vehicle) or 5 uM U0126 for 2 hours, then grown in the presence or absence of CXCL12. For all experiments, one microgram of RNA was reverse transcribed by use of Superscript III reverse transcriptase (Invitrogen, Carlsbad, Calif.). The resulting cDNA was diluted 1:100. Real-time PCR was performed by use of Assays on Demand (Applied BioSystems, Foster City, Calif.) according to the manufacturer's instructions, except that Real Time Ready with Rox passive dye (QBioGene, Carlsbad, Calif.) was used in place of TaqMan Universal PCR Master Mix. […] Cycle numbers to threshold were calculated by subtracting averaged control from averaged experimental values, and Fold Gene Expression was calculated by raising […]. […]
Quantitative Real-Time PCR. All quantitative real-time assays were conducted as previously described with an Applied Biosystems 7900HT instrument and reagents (see, e.g., Begley L A, et al., J Biol. Chem. 2007 Sep. 14; 282(37):26767-74; herein incorporated by reference in its entirety). […]

[3] = add back of exogenous chemokine, 96 hours

Compound	effect on proliferative response to CXCL12 ([1]; 1.0 uM U0126 with 1 pM, 10 pM or 100 pM CXCL12, compared to DMSO)	effect on proliferative response to CXCL12 ([1]; 5.0 uM U0126 in 0.05% DMSO)	effect of U0126 on the effect of CXCL5 (anticipated) ([1]; stated as anticipated)	cellular proliferation in the absence of CXCL12 ([1]; treatment with U0126)	effect on proliferative response to CXCL12 ([2]; co-treatment with U0126 (5 uM), 50 pM CXCL12)	effect of U0126 on the effect of CXCL5 (anticipated) ([2]; stated as anticipated)	effect on CXCL12-stimulated EGR1 gene transcription (EGR1 gene transcript; 5 uM U0126 for 2 hours, then 10 pM CXCL12)	CXCL5 concentrations that inhibited proliferation [1] [µM]	CXCL5 concentrations that stimulated proliferation [1] [pM]	proliferation versus SF media alone ([1]; 0.001-1 nM CXCL5, p<0.05)	proliferation in response to CXCL5 compared with CXCL12 ([1]; FIG. 8)	cell proliferation compared to serum-free (SF HIE) media alone [1, 3]	proliferation versus SF media alone ([2]; 0.001-1 nM CXCL5, p<0.05)	effect of CXCL5 on proliferation ([2]; CXCL5 1-10 pM)	cell proliferation compared to serum-free (SF HIE) media alone [2, 3]	EGR1 transcript versus vehicle-treated cells (EGR1 gene transcript; 1-100 pM CXCL5)
N#CC(=C(/N)Sc1ccccc1N)/C(C#N)=C(\N)Sc1ccccc1N [U0126]	nearly ablated	nearly ablated	will inhibit	diminished	not affected	will inhibit	ablated; also recorded: further dampens	–	–	–	–	–	–	–	–	–
CXCL5: recombinant human CXCL5 (R&D Systems, 254-X), CXC-type chemokine	–	–	–	–	–	–	–	> 100	1 to 10	significantly higher	equivalently	stimulate	significantly higher	did not stimulate	stimulate	4- to 8 fold
